Assay results from paper PMC10179080, “In Vivo and In Vitro Characterization of Close Analogs of Compound KA-11, a New Antiseizure Drug Candidate” (International Journal of Molecular Sciences, 2023).

How the values were obtained:
[1] = test system: 6-Hz-induced psychomotor seizures in mice; assay: 6 Hz (32 mA) seizure model; type: in vivo
Procedure: The experiments were conducted on adult male albino Swiss mice weighing 22–26 g. The animals were kept in colony cages under standardized laboratory conditions: natural light–dark cycle 12/12 h, temperature 20–24 °C, air humidity 45–65% and free access to tap water and food (chow pellets). After 7 days of adaptation to laboratory conditions, the animals were randomly assigned to experimental groups consisting of 8 mice. The experimental procedures described herein were approved by the Local Ethics Committee in Lublin, Poland (approval numbers: 71/2020 and 13/2021), and were conducted in accordance with EU Directive 2010/63/EU for animal experiments. All efforts were made to minimize animal suffering and to use only the number of animals necessary to produce reliable scientific data according to the 3Rs rule.
All substances (except PTZ and tetracaine hydrochloride dissolved in water for injections) were suspended in a 1% solution of Tween 80 (Sigma-Aldrich, Saint Louis, MO, USA) in water for injections (Baxter, Warszawa, Poland) or 0.9% NaCl. All drugs were injected intraperitoneally (i.p.) 30 min before all seizure models with 1 mL syringes as a single injection, in a volume of 10 mL/kg. The pretreatment time (30 min) before testing for KA-228 and KA-232 was chosen based on the time to peak of maximum anticonvulsant activity of KA-11 from our previous studies.
The 6-Hz-induced psychomotor seizures in mice were evoked by current (6 Hz, 0.2 ms rectangular pulse width, 32 mA, 3 s duration) generated by an S48 Square Pulse Stimulator and CCU1 Constant Current Unit (Grass Technologies, West Warwick, RI, USA). The animals were administered with increasing doses of KA-228 and KA-232, and the anticonvulsant activity of each drug was evaluated as the ED50. This experimental procedure has been described in detail in our previous studies.
The ED50 or TD50 values for tested substances in the acute animal models of seizures were calculated using the computer log-probit analysis. Subsequently, the ED50 and TD50 values (±SEM) were statistically analyzed using one-way analysis of variance (ANOVA) followed by the post hoc Dunnett’s test for multiple comparisons. Differences among values were considered statistically significant if p < 0.05. GraphPad Prism version 8 for Windows (GraphPad Software, San Diego, CA, USA) was used as a statistical software program. The results obtained from the acute ivPTZ test and grip strength test were evaluated by a Student’s t test. Fisher’s exact probability test was used to analyze protection from tonic forelimb and hindlimb extension in the ivPTZ test.

[2] = test system: neuromuscular strength in mice; assay: Grip strength test; type: in vivo
Procedure: The experiments were conducted on adult male albino Swiss mice weighing 22–26 g. The animals were kept in colony cages under standardized laboratory conditions: natural light–dark cycle 12/12 h, temperature 20–24 °C, air humidity 45–65% and free access to tap water and food (chow pellets). After 7 days of adaptation to laboratory conditions, the animals were randomly assigned to experimental groups consisting of 8 mice. The experimental procedures described herein were approved by the Local Ethics Committee in Lublin, Poland (approval numbers: 71/2020 and 13/2021), and were conducted in accordance with EU Directive 2010/63/EU for animal experiments. All efforts were made to minimize animal suffering and to use only the number of animals necessary to produce reliable scientific data according to the 3Rs rule. The grip strength test was carried out according to the methodology described by Socała et al.. Neuromuscular strength was measured just before the ivPTZ seizure threshold test to limit the number of animals used. The ED50 or TD50 values for tested substances in the acute animal models of seizures were calculated using the computer log-probit analysis. Subsequently, the ED50 and TD50 values (±SEM) were statistically analyzed using one-way analysis of variance (ANOVA) followed by the post hoc Dunnett’s test for multiple comparisons. Differences among values were considered statistically significant if p < 0.05. GraphPad Prism version 8 for Windows (GraphPad Software, San Diego, CA, USA) was used as a statistical software program. The results obtained from the acute ivPTZ test and grip strength test were evaluated by a Student’s t test. Fisher’s exact probability test was used to analyze protection from tonic forelimb and hindlimb extension in the ivPTZ test. Figure 8 Effects of KA-228 and KA-232 on neuromuscular strength in mice. KA-228 and KA-232 were administered i.p., 30 min before the test. Control animals received vehicle. […] The statistical significance was evaluated using the Student’s t test: * p < 0.05 vs. the vehicle-treated group (GraphPad Prism 8).

[3] = biological target: GABAA (α1,β2,γ2) (agonist radioligand) (Homo sapiens, UniProt P14867+P47870); assay: Radioligand binding, GABAA
Chain of GABAA (α1,β2,γ2) (agonist radioligand) (P14867 28-456): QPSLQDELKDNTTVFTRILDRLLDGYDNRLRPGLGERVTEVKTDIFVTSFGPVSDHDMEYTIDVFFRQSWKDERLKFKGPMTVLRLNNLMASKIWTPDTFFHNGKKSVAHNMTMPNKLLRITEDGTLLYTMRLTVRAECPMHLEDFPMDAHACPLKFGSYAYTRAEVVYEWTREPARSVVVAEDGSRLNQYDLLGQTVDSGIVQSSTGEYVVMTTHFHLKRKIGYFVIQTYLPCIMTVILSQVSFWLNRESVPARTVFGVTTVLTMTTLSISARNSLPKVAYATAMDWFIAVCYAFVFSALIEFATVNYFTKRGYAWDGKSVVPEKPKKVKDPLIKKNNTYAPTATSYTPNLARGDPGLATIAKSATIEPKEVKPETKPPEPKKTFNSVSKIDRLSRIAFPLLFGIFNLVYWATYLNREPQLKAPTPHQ
Chain of GABAA (α1,β2,γ2) (agonist radioligand) (P47870 25-512 limits assumed): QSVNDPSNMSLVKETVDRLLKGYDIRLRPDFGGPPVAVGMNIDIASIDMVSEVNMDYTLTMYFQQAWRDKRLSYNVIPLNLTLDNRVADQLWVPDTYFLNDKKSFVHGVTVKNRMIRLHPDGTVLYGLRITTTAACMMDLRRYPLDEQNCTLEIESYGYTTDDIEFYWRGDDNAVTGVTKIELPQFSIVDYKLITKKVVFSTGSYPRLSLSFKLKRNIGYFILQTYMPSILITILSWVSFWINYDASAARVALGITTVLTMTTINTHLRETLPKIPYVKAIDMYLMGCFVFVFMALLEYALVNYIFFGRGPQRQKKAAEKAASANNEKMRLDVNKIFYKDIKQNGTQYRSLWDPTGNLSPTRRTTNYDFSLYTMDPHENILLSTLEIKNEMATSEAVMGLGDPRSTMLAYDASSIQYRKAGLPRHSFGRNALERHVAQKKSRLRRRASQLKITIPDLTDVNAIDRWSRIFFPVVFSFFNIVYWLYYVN
Chain of GABAA (α1,β2,γ2) (agonist radioligand) (P18507 40-475 partner): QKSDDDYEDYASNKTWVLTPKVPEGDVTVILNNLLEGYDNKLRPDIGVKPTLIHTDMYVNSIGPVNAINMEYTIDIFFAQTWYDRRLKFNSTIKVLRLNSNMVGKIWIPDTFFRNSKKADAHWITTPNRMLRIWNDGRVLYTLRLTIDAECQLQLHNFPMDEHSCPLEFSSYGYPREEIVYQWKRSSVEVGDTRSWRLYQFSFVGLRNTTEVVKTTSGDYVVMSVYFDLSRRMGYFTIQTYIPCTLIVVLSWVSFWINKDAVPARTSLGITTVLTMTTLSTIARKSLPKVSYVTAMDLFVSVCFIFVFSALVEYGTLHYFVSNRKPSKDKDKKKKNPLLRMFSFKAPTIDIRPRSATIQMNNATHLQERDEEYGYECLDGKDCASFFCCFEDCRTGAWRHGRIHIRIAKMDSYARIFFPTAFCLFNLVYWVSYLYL

[4] = biological target: 5-HT1A (agonist radioligand) (Homo sapiens, UniProt P08908); assay: Radioligand binding, 5-HT1A
Chain of 5-HT1A (agonist radioligand) (P08908 whole entry): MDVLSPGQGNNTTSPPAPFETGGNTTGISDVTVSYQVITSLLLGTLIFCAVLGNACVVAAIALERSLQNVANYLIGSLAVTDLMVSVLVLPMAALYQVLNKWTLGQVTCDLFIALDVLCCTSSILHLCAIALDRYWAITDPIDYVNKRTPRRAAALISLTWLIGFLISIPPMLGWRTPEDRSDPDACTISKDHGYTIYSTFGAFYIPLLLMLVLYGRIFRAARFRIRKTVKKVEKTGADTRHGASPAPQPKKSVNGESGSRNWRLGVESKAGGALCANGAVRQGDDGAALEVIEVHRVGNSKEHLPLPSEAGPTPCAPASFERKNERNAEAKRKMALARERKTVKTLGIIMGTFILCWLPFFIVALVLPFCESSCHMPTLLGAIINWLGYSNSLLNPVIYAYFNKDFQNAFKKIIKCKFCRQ

[5] = biological target: T1, TRPV1 (VR1) (antagonist effect) (Homo sapiens, UniProt Q8NER1); assay: TRPV1 antagonist functional assay (intracellular Ca2+, CHO cells); type: cell-based; settings: 10 µM
T1 construct: host or cells: CHO cells
T1 sequence (Q8NER1 whole entry): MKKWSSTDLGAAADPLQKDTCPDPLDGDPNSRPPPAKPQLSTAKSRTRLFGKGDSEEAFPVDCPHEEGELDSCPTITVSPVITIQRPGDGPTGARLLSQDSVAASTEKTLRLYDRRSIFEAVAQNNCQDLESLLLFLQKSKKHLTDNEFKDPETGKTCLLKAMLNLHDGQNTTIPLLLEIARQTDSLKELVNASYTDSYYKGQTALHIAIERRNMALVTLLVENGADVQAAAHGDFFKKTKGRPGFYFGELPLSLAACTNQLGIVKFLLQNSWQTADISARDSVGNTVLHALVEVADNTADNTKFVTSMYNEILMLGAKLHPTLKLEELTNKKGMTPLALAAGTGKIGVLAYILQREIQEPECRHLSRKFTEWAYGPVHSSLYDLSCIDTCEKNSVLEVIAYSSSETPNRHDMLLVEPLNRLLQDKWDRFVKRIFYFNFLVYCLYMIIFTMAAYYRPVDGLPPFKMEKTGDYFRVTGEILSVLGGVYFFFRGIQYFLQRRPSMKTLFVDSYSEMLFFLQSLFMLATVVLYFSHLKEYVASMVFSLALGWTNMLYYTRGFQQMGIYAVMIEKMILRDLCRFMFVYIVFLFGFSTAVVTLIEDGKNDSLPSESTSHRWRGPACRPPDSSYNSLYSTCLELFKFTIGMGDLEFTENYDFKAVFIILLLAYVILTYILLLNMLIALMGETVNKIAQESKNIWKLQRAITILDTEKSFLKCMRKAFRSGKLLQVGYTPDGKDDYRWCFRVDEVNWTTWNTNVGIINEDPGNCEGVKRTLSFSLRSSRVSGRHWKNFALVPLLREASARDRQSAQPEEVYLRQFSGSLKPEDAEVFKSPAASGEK
Procedure: Binding studies were carried out commercially in Eurofins Laboratories (Poitiers, France or New Taipei City, Taiwan).

hepatoma HepG2 = assay: Hepatotoxicity, HepG2 cell viability; type: cell-based, human
From the text: The assays and protocols used for evaluating the KA-232 ADME-Tox parameters were similar to those described previously for compound KA-11 [6].
Figure 9 The effect of KA-232 and the reference drug ketoconazole (KE) on CYP3A4 activity (A). The effect of KA-232 and the reference drug quinidine (QD) on CYP2D6 activity (B). The effect of KA-232 and the reference cytostatic drug doxorubicin (DX) on the HepG2 cell line (C) and the SH-SY5Y cell line (D) viability. Statistical significance (* p < 0.05, **** p < 0.0001) was analyzed by Graph Pad Prism 8 software using one-way ANOVA and Bonferroni’s Multiple Comparison Post Test.

[6] = read-out: % Inhibition of Control Specific Binding

## CC(C(=O)N1CCN(c2cccc(C(F)(F)F)c2)CC1)N1C(=O)CC(N(C)C)C1=O.Cl (stereo not drawn) [KA-232, 3-(Dimethylamino)-1-(1-oxo-1-(4-(3-(trifluoromethyl)phenyl)piperazin-1-yl)propan-2-yl)pyrrolidine-2,5-dione hydrochloride]
[1]; Mus musculus, ip, 30 min before test, read-out: ED50 6 Hz ± SD
  ED50: 26.5 ± 33.5 mg/kg
[1]; i.p.
  TI (TD50/ED50), 6 Hz: 6.14
[2]; 50 mg/kg i.p., 30 min before test
  effect on neuromuscular strength (grip strength): did not produce any significant effects
[2]; 100 mg/kg i.p., p < 0.05
  effect on neuromuscular strength (grip strength): slightly decreased
[3]; 10 µM
  % Inhibition of Control Specific Binding: did not interact
[3]; [6]
  inhibition at 10 µM: -6.7%
[4]; 10 µM
  % Inhibition of Control Specific Binding: did not interact
[4]; [6]
  inhibition at 10 µM: 9.6%
[5]
  % Inhibition of control specific binding (functional, antagonist effect): did not inhibit
[5]; CHO, read-out: % Inhibition of control specific binding (functional, antagonist effect)
  inhibition at 10 µM: 10.5%
Hepatoma HepG2; 10 µM
  HepG2 viability (% of control ± SD): 89.44 ± 10.22 % of control
Hepatoma HepG2; 100 µM
  HepG2 cell viability: approximately 78 % of control
